Assay results: patent publication US20250011296A1, “MODULATORS OF MOLECULAR TARGETS EXPRESSED IN METABOLIC AND INFLAMMATORY DISORDERS” (Ohio State Innovation Foundation, priority 2021, published 2025)
Entries after “also recorded” stand apart in the source; their conditions may differ. Read-outs that look alike come from different tables or passages of the source.

How the values were obtained:
[1] = molecular target: T1, NFκB (Homo sapiens, UniProt Q04206); assay: NFκB assay (EZ-Detect Transcription Factor Assay kit; TNF-α-treated HeLa cells, nuclear extracts); assay type: cell-based
T1 construct: endogenous in cells; host or cells: HeLa cells (ATCC), nuclear extract
T1 sequence (Q04206 whole entry): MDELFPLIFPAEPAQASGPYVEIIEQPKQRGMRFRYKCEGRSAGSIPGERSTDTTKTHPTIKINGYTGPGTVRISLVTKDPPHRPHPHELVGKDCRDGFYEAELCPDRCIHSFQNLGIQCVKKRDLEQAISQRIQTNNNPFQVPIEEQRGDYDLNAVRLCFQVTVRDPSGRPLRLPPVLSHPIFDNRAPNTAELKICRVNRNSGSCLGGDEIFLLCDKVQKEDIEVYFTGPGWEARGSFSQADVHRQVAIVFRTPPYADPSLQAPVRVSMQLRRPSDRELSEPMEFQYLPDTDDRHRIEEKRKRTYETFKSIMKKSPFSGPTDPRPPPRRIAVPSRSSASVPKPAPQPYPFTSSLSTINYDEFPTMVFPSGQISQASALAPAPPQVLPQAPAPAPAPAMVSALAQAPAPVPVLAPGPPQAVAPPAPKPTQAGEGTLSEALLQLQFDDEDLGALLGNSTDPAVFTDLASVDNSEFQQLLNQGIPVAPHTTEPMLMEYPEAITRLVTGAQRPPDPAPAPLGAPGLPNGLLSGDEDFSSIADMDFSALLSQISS
Protocol: To assess the ability of natural product extracts and compounds to inhibit the specific binding of activated NFκB transcription factor to the biotinylated consensus sequence, the EZ-Detect™ Transcription Factor Assay kit (Pierce Biotechnology) was used according to the kit manual and established protocol. HeLa cells (ATCC) were treated with each test sample and TNF-α, nuclear extracts harvested using the NE-PER kit (Pierce Biotechnology), and protein content equilibrated using the Pierce BCA Protein Assay kit (Pierce Biotechnology). Specific binding was detected through quantification of chemiluminescent signal in a plate reader (FLUOstar Optima, BMG Labtechnologies GmbH, Inc.).

[2] = molecular target: T2, PPAR-γ (Homo sapiens, UniProt P37231); assay: PPAR-γ ELISA assay (PPAR-α,γ,δ Complete Transcription Factor Assay Kit; CCD-112CoN or Hela cells, nuclear extracts); assay type: cell-based
T2 construct: endogenous in cells; host or cells: CCD-112CoN normal colon cells or HeLa cells (ATCC), nuclear extract
T2 sequence (P37231 1-505): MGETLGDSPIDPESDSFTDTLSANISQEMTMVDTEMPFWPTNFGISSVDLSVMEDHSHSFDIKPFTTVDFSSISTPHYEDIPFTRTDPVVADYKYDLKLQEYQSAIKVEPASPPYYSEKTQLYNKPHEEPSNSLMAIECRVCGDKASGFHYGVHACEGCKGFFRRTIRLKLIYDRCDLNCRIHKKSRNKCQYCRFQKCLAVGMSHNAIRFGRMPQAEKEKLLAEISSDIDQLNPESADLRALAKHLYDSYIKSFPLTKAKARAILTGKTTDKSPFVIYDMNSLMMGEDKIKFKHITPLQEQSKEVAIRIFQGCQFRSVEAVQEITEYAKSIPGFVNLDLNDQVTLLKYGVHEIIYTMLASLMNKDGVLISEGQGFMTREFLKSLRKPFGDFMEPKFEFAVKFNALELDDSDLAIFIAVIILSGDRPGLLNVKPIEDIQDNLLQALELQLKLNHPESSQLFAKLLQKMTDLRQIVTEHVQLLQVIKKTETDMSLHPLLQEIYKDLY
Protocol: To evaluate the ability of natural product extracts and compounds to induce specific binding of PPAR-γ transcription factor in nuclear extracts to immunosorbed peroxisome proliferator response element, the PPAR-α,γ,δ Complete Transcription Factor Assay Kit (Cayman Chemical Company) was used according to the kit protocol. 303 CCD-112CoN normal colon cells or Hela cells (ATCC) were treated with mace extracts or isolated compounds for 24 h, nuclear extracts were harvested using the NE-PER kit (Pierce Biotechnology), and protein content equilibrated using the Pierce BCA Protein Assay kit (Pierce Biotechnology). Specific binding was detected through quantification of absorptivity at 630 nm in a BioTek uQuant microplate reader (BioTek Instruments, Inc.). […] Licarin A derivatives 45-48 were screened through the panel of in vitro assays to evaluate their potential as antidiabetic compound leads. […] Methods for the assay were as described above.

[3] = system: PPAR-γ expression; assay: Larval diabetic zebrafish assay, Western blot of PPAR-γ; assay type: in vivo; details: diabetic zebrafish larvae, 10 μM
Protocol: Western blot analysis of zebrafish expression levels for glycated hemoglobin, metabolic enzymes, and molecular targets NFκB and PPAR-γ was performed to evaluate potential lead improvement and to discover possible mechanisms of action.
Wild-type zebrafish were sorted into 24-well microplates with 10 fish per well for a four-phase treatment cycle. At 72 hpf, type 2 diabetes was induced by administering 0.5 mg/mL alloxan in fish water for percutaneous absorption. […] At 78 hpf, the incubation solution was changed to 10 mg/ml D-glucose for 30 minutes, followed by a phase-four rinse in fresh system w Following the four-phase treatment cycle, zebrafish treatment groups were snap frozen in microcentrifuge tubes on dry ice, stored overnight at −80° C., thawed, and homogenized with 2 μL PBS per animal. Following centrifugation (60 minutes at 4° C. and 17,000 rpm), protein content of the homogenate supernatant was determined using the Pierce BCA Protein Assay kit (Pierce Biotechnology). Homogenates were analyzed by Western blot with equal amounts of total protein (20 μg) in each sample and using 4×LDS loading buffer (NuPAGE Life Technologies).
(§1) Electrophoresis was performed with NuPAGE MES SDS Running Buffer and using the XCell SureLock Mini-Cell Electrophoresis System (Life Technologies). Proteins separated on the gel were transferred to a PVDF membrane using TBST buffer. The blots were blocked in 3% BSA in TBST and subsequently probed overnight with primary antibodies (1:1000 in 1% BSA in TBST) against each target of interest. Following TBST rinses, secondary HRP-conjugated antibodies (1:2000) were applied to the membrane for 60 minutes. The HRP conjugated antibodies were detected using SuperSignal West Femto chemiluminescent substrate (Pierce Biotechnology) and immunoblot images were captured using the luminometer and Lumi Analyst 3.0 software.
(§2) Band densities were determined using ImageJ Gel Analysis to determine expression levels of each protein of interest. Expression levels of HbA1C, PPAR-γ, and NFκB were organized into a bar graphs (FIG. 5) with band densities calculated in comparison to the housekeeping gene β-actin, normalized to the untreated diabetic group (B) of zebrafish. […].

[4] = system: HbA1C (glycated hemoglobin) expression; assay: Larval diabetic zebrafish assay, Western blot of HbA1C; assay type: in vivo; details: duplicate Western blot (FIG. 7), diabetic zebrafish larvae, 10 μM
Protocol: (§3) Following isolation, derivatization, and analysis of compounds 41-48 through the in vitro panel of assays, the mace natural products and licarin A derivatives were investigated in the larval diabetic zebrafish assay for potential antidiabetic activity. Western blot analysis of zebrafish expression levels for glycated hemoglobin, metabolic enzymes, and molecular targets NFκB and PPAR-γ was performed to evaluate potential lead improvement and to discover possible mechanisms of action.
(§4) Wild-type zebrafish were sorted into 24-well microplates with 10 fish per well for a four-phase treatment cycle. At 72 hpf, type 2 diabetes was induced by administering 0.5 mg/mL alloxan in fish water for percutaneous absorption. After three hours of alloxan treatment, phase two of the treatment cycle was initiated by administering 10 μM doses of natural product compounds 41-43 (FIG. 4) or derivatives 45-48 (FIG. 6) with 0.01% DMSO in system water. At 78 hpf, the incubation solution was changed to 10 mg/ml D-glucose for 30 minutes, followed by a phase-four rinse in fresh system w Following the four-phase treatment cycle, zebrafish treatment groups were snap frozen in microcentrifuge tubes on dry ice, stored overnight at −80° C., thawed, and homogenized with 2 μL PBS per animal. Following centrifugation (60 minutes at 4° C. and 17,000 rpm), protein content of the homogenate supernatant was determined using the Pierce BCA Protein Assay kit (Pierce Biotechnology). Homogenates were analyzed by Western blot with equal amounts of total protein (20 μg) in each sample and using 4×LDS loading buffer (NuPAGE Life Technologies). The immunoblot samples were heated at 95° C. for 5 minutes and loaded onto NuPAGE Bis-Tris 4-12% gradient SDS-PAGE gels.
as §1, §2

[5] = system: PEPCK expression; assay: Larval diabetic zebrafish assay, Western blot of PEPCK; assay type: in vivo; details: duplicate Western blot (FIG. 10), diabetic zebrafish larvae, 10 μM
Protocol: as §3, §4, §1, §2

[6] = system: NFκB p65 expression; assay: Larval diabetic zebrafish assay, Western blot of NFκB p65; assay type: in vivo; details: duplicate Western blot (FIG. 9), diabetic zebrafish larvae, 10 μM
Protocol: as §3
Wild-type zebrafish were sorted into 24-well microplates with 10 fish per well for a four-phase treatment cycle. […] Following centrifugation (60 minutes at 4° C. and 17,000 rpm), protein content of the homogenate supernatant was determined using the Pierce BCA Protein Assay kit (Pierce Biotechnology). Homogenates were analyzed by Western blot with equal amounts of total protein (20 μg) in each sample and using 4×LDS loading buffer (NuPAGE Life Technologies). […]
Electrophoresis was performed with NuPAGE MES SDS Running Buffer and using the XCell SureLock Mini-Cell Electrophoresis System (Life Technologies). […] The HRP conjugated antibodies were detected using SuperSignal West Femto chemiluminescent substrate (Pierce Biotechnology) and immunoblot images were captured using the luminometer and Lumi Analyst 3.0 software. […]

[7] = system: GLUT-4 expression; assay: Larval diabetic zebrafish assay, Western blot of GLUT-4; assay type: in vivo; details: duplicate Western blot (FIG. 11), diabetic zebrafish larvae, 10 μM
Protocol: as §3
Wild-type zebrafish were sorted into 24-well microplates with 10 fish per well for a four-phase treatment cycle. At 72 hpf, type 2 diabetes was induced by administering 0.5 mg/mL alloxan in fish water for percutaneous absorption. After three hours of alloxan treatment, phase two of the treatment cycle was initiated by administering 10 μM doses of natural product compounds 41-43 (FIG. 4) or derivatives 45-48 (FIG. 6) with 0.01% DMSO in system water. […] Following centrifugation (60 minutes at 4° C. and 17,000 rpm), protein content of the homogenate supernatant was determined using the Pierce BCA Protein Assay kit (Pierce Biotechnology). Homogenates were analyzed by Western blot with equal amounts of total protein (20 μg) in each sample and using 4×LDS loading buffer (NuPAGE Life Technologies). […]
Electrophoresis was performed with NuPAGE MES SDS Running Buffer and using the XCell SureLock Mini-Cell Electrophoresis System (Life Technologies). […] The HRP conjugated antibodies were detected using SuperSignal West Femto chemiluminescent substrate (Pierce Biotechnology) and immunoblot images were captured using the luminometer and Lumi Analyst 3.0 software.
as §2

[8] = Table 13, tested at 50, 5, 0.5 and 0.05 μg/mL
[9] = Table 20 summary, read-out: NFκBIC50
[10] = Table 19, licarin A derivatives at 50 μg/mL in Hela cells

## C=CCc1cc(OC)c(O[C@H](C)[C@@H](O)c2ccc3c(c2)OCO3)c(OC)c1 [Compound 43, erythro-8,4′-oxyneolign-8′-ene]
[1]; [8]
  IC50: 64.4 nM
[1]; [9]
  IC50: 64.4 nM
[1]; in vitro NFκB assay
  IC50: 64.4 nM
[2]; Table 14, isolates at 50 μg/mL
  PPAR-γ % activation: <50%
[2]; Table 20 summary, 50 μg/mL
  PPAR-γ % activation: <50%
[3]; preliminary Western blot (FIG. 4/5)
  PPAR-γ expression (band density): greater PPAR-γ expression that 41

## C/C=C/c1ccc(O[C@H](C)[C@@H](OC(C)=O)c2ccc3c(c2)OCO3)c(OC)c1 [Compound 44, maceneolignan J]
[1]; [8]
  IC50: 0.1 nM
[1]; [9]
  IC50: 0.1 nM
[1]; in vitro NFκB assay
  IC50: 0.1 nM

## C/C=C/c1cc(OC)c2c(c1)[C@H](C)[C@@H](c1ccc(OC(C)C)c(OC)c1)O2 [Compound 45, isopropoxy-licarin A]
[2]; [10]
  PPAR-γ % activation: 57%
[2]; Table 20 summary, 50 μg/mL
  PPAR-γ % activation: 57%
[4]
  HbA1C expression (band density): did not reduce HbA1C expression
[5]
  PEPCK expression (band density): indicated a return to normoglycemia

## COc1cc([C@H]2Oc3c(OC)cc(C=O)cc3[C@@H]2C)ccc1OC(C)C [Compound 46, isopropoxy-licarin A carbaldehyde]
[2]; [10]
  PPAR-γ % activation: 29%
[2]; Table 20 summary, 50 μg/mL
  PPAR-γ % activation: 29%
[2]; preliminary screening, 50 μg/mL
  PPAR-γ activity in vitro: no significant PPAR-γ activity in vitro
[4]
  HbA1C expression (band density): most effective test samples for decreasing HbA1C; also recorded: significant reduction of HbA1C expression
[6]
  NFκB p65 expression (band density): lower levels of NFκB
[5]
  PEPCK expression (band density): indicated a return to normoglycemia

## C/C=C/c1cc(OC)c2c(c1)[C@H](C)[C@@H](c1ccc(OC(=O)OCC)c(OC)c1)O2 [Compound 47, licarin A ethyl carbonate]
[1]; HeLa cells
  NFκB inhibitory activity in vitro: only weak NFκB inhibitory activity
[2]; [10]
  PPAR-γ % activation: 0%
[2]; Table 20 summary, 50 μg/mL
  PPAR-γ % activation: 0%
[4]
  HbA1C expression (band density): did not reduce HbA1C expression
[3]; duplicate Western blot (FIG. 8)
  PPAR-γ expression (band density): performed surprisingly well
[5]
  PEPCK expression (band density): retained low PEPCK expression
[7]
  GLUT-4 expression (band density): significantly increased capacities for glucose uptake

## CCOC(=O)Oc1ccc([C@H]2Oc3c(OC)cc(C=O)cc3[C@@H]2C)cc1OC [Compound 48, licarin A formyl ethyl carbonate]
[2]; [10]
  PPAR-γ % activation: 0%
[2]; Table 20 summary, 50 μg/mL
  PPAR-γ % activation: 0%
[4]
  HbA1C expression (band density): did not reduce HbA1C expression
[6]
  NFκB p65 expression (band density): lower levels of NFκB
[5]
  PEPCK expression (band density): retained low PEPCK expression
[7]
  GLUT-4 expression (band density): significantly increased capacities for glucose uptake
